Molecules are shown by their SMILES.

The values that follow come from patent publication US20100285145A1, “GPR 119 MODULATORS” (PFIZER INC, priority 2009, published 2010).

The subject of this assay is male Wistar rats. The assay is described as follows: Oral glucose tolerance test (OGTT). The class given is in vivo. Particulars: rat; for Glucose 0-120 min AUC (percent vehicle response): 30 min before glucose 2 g/kg. From the text:
All in vivo protocols were approved by the Pfizer's Animal Welfare Committee. Naive male Wistar rats (225-250 g body weight on receipt) were obtained from Harlan Laboratories (Indianapolis, Ind.), were pair housed in hanging plastic caging on Sani-chips sawdust bedding, and fed ad libitum on Purina 5001 chow. The rats were housed under a controlled light cycle (light from 6 am to 6 pm) at controlled temperature and humidity conditions. Rats were acclimated to the facility for at least 1 week prior to study.
Example 17 was formulated in 0.5% methylcellulose. The highest dose (30 mg/kg) was formulated at 6 mg/mL for administration at 5 mL/kg, the required bulk was added to a mortar and ground with a small amount of 0.5% methylcellulose to a smooth paste with a pestle, additional 0.5% methylcellulose was added until the mixture flowed, when it was transferred to a stirred container, the mortar was rinsed several times with remaining quantity of 0.5% methylcellulose and capped to prevent evaporation. The suspension was stirred continuously overnight with a magnetic stir bar prior to study, and the lower doses were diluted from the 6 mg/mL suspension using the appropriate volume of 0.5% methylcellulose. All dosing suspensions were stirred throughout the dosing procedure.
Rats were stratified (n=8/group) to vehicle (0.5% methylcellulose) or one of three dose groups (1, 5, or 30 mg/kg) according to body weight on day-1 to ensure that each group had equal group mean body weight values. The rats were fasted overnight in clean cages overnight (˜15 hours) prior to the oral glucose tolerance test. Body weights were recorded on the morning of the study (post fasting) for dose volume calculation. Blood samples were collected from all rats prior to dosing with vehicle or test compound via oral gavage (5 mL/kg). Thirty minutes later rats were bled and immediately dose with an oral dose of glucose (2 g/kg). The rats were re-bled at 15, 30, 60 and 120 minutes post-glucose load. Blood samples (˜250 μL/time point) were collected into EDTA tubes with aprotinin/DPPIVi (0.6 TIU/2 μL per mL whole blood). Blood tubes were inverted several times immediately following collection and placed on ice, then spun at 14,000 rpm in a refrigerated centrifuge for 5 minutes. Plasma samples were analyzed for glucose levels using a Roche 912 clinical chemistry analyzer, plasma insulin concentrations were determined using the Alpco Ultra-Sensitive Insulin Rat ELISA, and total amide GLP-1 concentrations were determined using MSD ELISA kit.
The results are presented as mean+/−SEM (standard error of the mean) unless otherwise stated. Statistical evaluation of the data is carried out using one-way analysis of variance (ANOVA) with appropriate post-hoc analysis between vehicle and treatment group. Differences compared to vehicle with a p>0.05 were considered statistically significant using Dunnett's T-test.

On to `Cc1c(O[C@H]2CCN(C(=O)OC3(C)CC3)C[C@H]2F)ncnc1N1CCc2ncccc21` [Example 17, 1-Methylcyclopropyl (3R,4S)-4-{[6-(2,3-dihydro-1H-pyrrolo[3,2-b]pyridin-1-yl)-5-methylpyrimidin-4-yl]oxy}-3-fluoropiperidine-1-carboxylate], for which, under “1 mg/kg oral”, the “Insulin 0-60 min AUC (percent vehicle response)” value is listed as 90 percent vehicle response, the “Total Amide GLP-1 0-120 min AUC (percent vehicle response)” value was found to be 147 percent vehicle response and the “Glucose 0-120 min AUC (percent vehicle response)” value worked out at 102 percent vehicle response. In addition, for the setting “5 mg/kg oral”, the “Insulin 0-60 min AUC (percent vehicle response)” value is 142 percent vehicle response, the “Total Amide GLP-1 0-120 min AUC (percent vehicle response)” value was “+184 percent vehicle response” and the “Glucose 0-120 min AUC (percent vehicle response)” value is 95 percent vehicle response. Also, for the setting “30 mg/kg oral”, the “Insulin 0-60 min AUC (percent vehicle response)” value amounted to 112 percent vehicle response, the “Total Amide GLP-1 0-120 min AUC (percent vehicle response)” value came to 150 percent vehicle response and the “Glucose 0-120 min AUC (percent vehicle response)” value is on record as “++90 percent vehicle response”.
